Measured values from US11369615B2, “Agent for improving mitochondrial dysfunction, preventative or therapeutic agent for diseases or symptoms caused by mitochondrial dysfunction, and applications therefor” (JICHI MEDICAL UNIVERSITY, priority 2017, dated 2022).
Where a name gives a salt, the structure may show the parent alone.

Experiments:
[1] = test system: Promo 1 cells as normal cells; test: Tolerance to oxidative stress by BSO, Promo1 normal cells; type: cell-based, human; conditions: Promo 1 normal cells; concentration range of 1 to 1000 μM
Procedure: (§1) The oxidative stress test is a known pharmaceutical agent screening method, which was carried out under the conditions where cell death was induced by addition of L-buthionine-(S,R)-sulfoximine (BSO) (Arce P M et al., ACS Med Chem Lett., May 31, 2011, Vol. 2 (8), p. 608-13, doi: 10.1021/m1200095w. eCollection, Aug. 11, 2011, PubMed PMID: 24900356; PubMed Central PMCID: PMC4018135). BSO inhibits synthesis of glutathione serving as an antioxidant in the cells to deplete glutathione, raising the level of active oxygen within the cells. The procedure of the test is as follows. The cells to be used in the test were seeded in a 96-well plate for cell culture so as to satisfy a concentration of 5,000 cells/well and 80 μL medium/well and cultured in a CO2 incubator (37° C., 5% CO2) for 24 hours. Twenty four hours after the culture, BSO and each of the pharmaceutical agents (final concentration of 1 μM) of the drug library were together added to the cells within the wells. Forty eight hours after the addition, survival rates were determined. The survival rates were determined by measuring absorbance of formazan generated by use of cell count reagent SF (Nacalai Tesque, Inc.). As a positive control compound, idebenone (Non Patent Literature 1) approved as a therapeutic agent for Leber's hereditary optic neuritis in Europe, was used in the same concentration. […]

[2] = test system: ME54 cells derived from a patient with Leigh syndrome; test: Tolerance to oxidative stress by BSO, ME54 cells; type: cell-based, human
Procedure: as §1

[3] = test system: ME110 cells; test: Evaluation test for mitochondrial function (extracellular flux analyzer, OCR), ME110 cells; type: cell-based, human; conditions: 10 nM, 24 hours after addition, vs DMSO control
Procedure: (§2) An evaluation test for mitochondrial function including ATP production (capacity) was carried out by using an extracellular flux analyzer (XFe96, Primetech Corporation). Mitochondrial function can be evaluated by continuously measuring the oxygen consumption rate (OCR) of mitochondria during ATP synthesis by use of the extracellular flux analyzer while adding ATP synthase inhibitors (oligomycin, rotenone and antimycin A) and an uncoupler (carbonyl cyanide-p-trifluoromethoxy phenylhydrazone (FCCP)). The evaluation items to be analyzed were basal respiratory volume, ATP production (capacity) and maximum respiratory volume, which are major indexes for evaluating mitochondrial function. The test procedure is as follows. The cells to be used in the test were seeded in a 96-well plate for cell culture so as to satisfy a concentration of 20,000 cells/well and 80 μL medium/well and cultured in a CO2 incubator (37° C., 5% CO2) for 24 hours. Twenty four hours after the culture, each of the pharmaceutical agents (final concentration of 1,000, 100 or 10 nM) of the drug library or the same amount of dimethyl sulfoxide (DMSO) as a control was added to the cells within wells. Twenty minutes after the addition of the pharmaceutical agent, oligomycin (final concentration of 2 μM) was added. Fifty minutes after the addition of the pharmaceutical agent, FCCP (final concentration of 2 μM) was added. Eighty minutes after the addition of the pharmaceutical agent, rotenone and antimycin A (final concentration of 0.5 μM) were sequentially added. The oxygen consumption rate (OCR) was measured with time. Based on the measurement results 24 hours after the addition of the pharmaceutical agents of the drug library, basal respiratory volume, ATP production (capacity) and maximum respiratory volume were evaluated.
(§3) Reference symbols of ** and ***, which represent p values relative to the control (DMSO) calculated by Student's t-test, show […], respectively.

[4] = test system: ME54 cells derived from a patient with Leigh syndrome; test: Oxidative stress test (BSO-induced cell death), ME54 cells; type: cell-based, human; conditions: BSO plus agent 1 μM, 48 hours after addition
Source text: (§4) In mitochondrial dysfunction, for example, ATP production is damaged and/or oxidative stress increases, with the result that apoptosis of cells is induced. Because of this, individuals having mitochondrial dysfunction are reported to be less tolerant to oxidative stress, compared to normal individuals (Shrader W D et al., Bioorg Med Chem Lett., Jun. 15, 2011, Vol. 21 (12), p. 3693-8, doi: 10.1016/j.bmc1.2011.04.085. electronically published on Apr. 24, 2011, PubMed PMID: 21600768). Then, oxidative stress was given to the skin fibroblasts of individual patients mentioned above to induce apoptosis. Under the conditions, compounds of the drug library were each administered to the cells. In this manner, a primary screening was carried out. Then, candidate pharmaceutical agents selected by the primary screening were subjected to a secondary screening, which is an in-vitro evaluation test such as a mitochondrial function evaluation test and a microarray expression analysis.
(§5) The oxidative stress test is a known pharmaceutical agent screening method, which was carried out under the conditions where cell death was induced by addition of L-buthionine-(S,R)-sulfoximine (BSO) (Arce P M et al., ACS Med Chem Lett., May 31, 2011, Vol. 2 (8), p. 608-13, doi: 10.1021/m1200095w. eCollection, Aug. 11, 2011, PubMed PMID: 24900356; PubMed Central PMCID: PMC4018135). BSO inhibits synthesis of glutathione serving as an antioxidant in the cells to deplete glutathione, raising the level of active oxygen within the cells. The procedure of the test is as follows. The cells to be used in the test were seeded in a 96-well plate for cell culture so as to satisfy a concentration of 5,000 cells/well and 80 μL medium/well and cultured in a CO2 incubator (37° C., 5% CO2) for 24 hours. Twenty four hours after the culture, BSO and each of the pharmaceutical agents (final concentration of 1 μM) of the drug library were together added to the cells within the wells. Forty eight hours after the addition, survival rates were determined. The survival rates were determined by measuring absorbance of formazan generated by use of cell count reagent SF (Nacalai Tesque, Inc.). As a positive control compound, idebenone (Non Patent Literature 1) approved as a therapeutic agent for Leber's hereditary optic neuritis in Europe, was used in the same concentration.
(§6) An oxidative stress test was carried out by using three fibroblast cell lines derived from patients with a mitochondrial disease and provided in 1-2. The pharmaceutical agent showing the survival rate equal to or more than that of idebenone, a positive control compound, was determined to be effective. The results of oxidative stress test of pharmaceutical agents of the drug library to KCMC10 cells are shown in FIG. 2; the results of oxidative stress test of pharmaceutical agents of the drug library to ME54 cells are shown in FIG. 3; and the results of oxidative stress test of pharmaceutical agents of the drug library to ME110 cells are shown in FIG. 4.

[5] = test system: ME110 cells derived from a patient with MELAS; test: Oxidative stress test (BSO-induced cell death), ME110 cells; type: cell-based, human; conditions: BSO plus agent 1 μM, 48 hours after addition
Source text: as §4, §5, §6

[6] = test system: KCMC10 cells derived from a patient with Leigh syndrome; test: Oxidative stress test (BSO-induced cell death), KCMC10 cells; type: cell-based, human; conditions: BSO plus agent 1 μM, 48 hours after addition
Source text: as §4, §5, §6

[7] = test system: KCMC10 cells; test: Evaluation test for mitochondrial function (extracellular flux analyzer, OCR), KCMC10 cells; type: cell-based, human; conditions: 10 to 100 nM, 24 hours after addition, vs DMSO control
Procedure: as §2, §3

[8] = stated as known; cited from earlier work
[9] = test system: KCMC10 cells derived from patients with Leigh syndrome; test: Microarray expression analysis
Procedure: Expression analysis by a microarray was carried out by use of SurePrint G3 Human Gene Expression 8×60K v3 of Agilent Technologies, Inc. To KCMC10 cells derived from patients with Leigh syndrome, BSO was added, to prepare a group of patients provided with oxidative stress. To the cells, BSO and each of the candidate pharmaceutical agents selected from the drug library were both added to prepare another group. In this manner, two samples per each group were prepared. RNA was extracted from each of the samples and subjected to expression analysis by a microarray.
In the tables, the value of Log 2 ratio between the two groups of 1 means that expression ratios differ twice, the value of Log 2 ratio of 2 means 4 times difference and the value of Log 2 ratio of 3 means 8 times difference.

[10] = KCMC10, BSO/agent vs BSO, Inflammatory cytokine
[11] = KCMC10, BSO/agent vs BSO, JAK-STAT signal pathway
[12] = KCMC10, BSO/agent vs BSO, Lymphocytic tissue homing receptor
[13] = KCMC10, BSO/agent vs BSO, MARK signal pathway
[14] = KCMC10, BSO/agent vs BSO, Proinflammatory effect
[15] = KCMC10, BSO/agent vs BSO, Table 4
[16] = KCMC10, BSO/agent vs BSO, WNT signal pathway
[17] = KCMC10, BSO/agent vs BSO, mTOR signal pathway
[18] = KCMC10 cells, BSO/agent addition group vs BSO addition group

CCCCS(=N)(=O)CCC(N)C(=O)O [BSO, L-buthionine-(S,R)-sulfoximine]
difference in survival rates [1]: no significant difference
concentration at which the survival rate significantly decreased [2]: ≥ 50 µM

CN1CCc2cccc3c2[C@H]1Cc1ccc(O)c(O)c1-3 [Pharmaceutical agent No. 5, R(−)-Apomorphine hydrochloride hemihydrate]
ATP production (capacity) [3]: significantly improved
basal respiratory volume [3]: significantly improved
maximum respiratory volume [3]: significantly improved
survival rate equal to or more than that of idebenone (determined to be effective) [4]: effective
survival rate equal to or more than that of idebenone (determined to be effective) [5]: effective
survival rate equal to or more than that of idebenone (determined to be effective) [6]: effective
ATP production (capacity) [7]: significantly improved
basal respiratory volume [7]: significantly improved
maximum respiratory volume [7]: significantly improved
ability to pass through the blood-brain barrier [8]: known to be able to pass through the blood-brain barrier
Expression change (Increase/Decrease), CCL3 [9, 10]: Decrease
Expression change (Increase/Decrease), IL24 [9, 10]: Decrease
Expression change (Increase/Decrease), LIF [9, 10]: Decrease
Log 2 ratio between two groups, CCL3 [9, 10]: −2.98
Log 2 ratio between two groups, IL24 [9, 10]: −1.77
Log 2 ratio between two groups, LIF [9, 10]: −3.32
Expression change (Increase/Decrease), BCL2A1 [9, 11]: Decrease
Expression change (Increase/Decrease), FHL1 [9, 11]: Increase
Expression change (Increase/Decrease), IL13RA2 [9, 11]: Decrease
Expression change (Increase/Decrease), SOCS2 [9, 11]: Increase
Expression change (Increase/Decrease), SOSC1 [9, 11]: Decrease
Log 2 ratio between two groups, BCL2A1 [9, 11]: −3.90
Log 2 ratio between two groups, FHL1 [9, 11]: 1.01
Log 2 ratio between two groups, IL13RA2 [9, 11]: −1.63
Log 2 ratio between two groups, SOCS2 [9, 11]: 1.30
Log 2 ratio between two groups, SOSC1 [9, 11]: −1.21
Expression change (Increase/Decrease), CCL19 [9, 12]: Decrease
Log 2 ratio between two groups, CCL19 [9, 12]: −4.92
Expression change (Increase/Decrease), DUSP6 [9, 13]: Decrease
Log 2 ratio between two groups, DUSP6 [9, 13]: −3.25
Expression change (Increase/Decrease), IL12A [9, 14]: Decrease
Log 2 ratio between two groups, IL12A [9, 14]: −2.71
Expression change (Increase/Decrease), CCL7 [9, 15]: Decrease
Expression change (Increase/Decrease), CSF3 [9, 15]: Decrease
Expression change (Increase/Decrease), CXCL2 [9, 15]: Decrease
Expression change (Increase/Decrease), CXCL3 [9, 15]: Decrease
Expression change (Increase/Decrease), CXCL8 [9, 15]: Decrease
Expression change (Increase/Decrease), MMP1 [9, 15]: Decrease
Log 2 ratio between two groups, CCL7 [9, 15]: −2.41
Log 2 ratio between two groups, CSF3 [9, 15]: −5.58
Log 2 ratio between two groups, CXCL2 [9, 15]: −2.68
Log 2 ratio between two groups, CXCL3 [9, 15]: −3.72
Log 2 ratio between two groups, CXCL8 [9, 15]: −4.34
Log 2 ratio between two groups, MMP1 [9, 15]: −1.40
Expression change (Increase/Decrease), DKK4 [9, 16]: Increase
Expression change (Increase/Decrease), FZD8 [9, 16]: Decrease
Expression change (Increase/Decrease), GBP [9, 16]: Increase
Expression change (Increase/Decrease), LEF1 [9, 16]: Decrease
Expression change (Increase/Decrease), SOST [9, 16]: Increase
Log 2 ratio between two groups, DKK4 [9, 16]: 1.66
Log 2 ratio between two groups, FZD8 [9, 16]: −1.51
Log 2 ratio between two groups, GBP [9, 16]: 2.11
Log 2 ratio between two groups, LEF1 [9, 16]: −1.23
Log 2 ratio between two groups, SOST [9, 16]: 1.70
Expression change (Increase/Decrease), CAB39L [9, 17]: Decrease
Expression change (Increase/Decrease), DEPTOR [9, 17]: Increase
Expression change (Increase/Decrease), FECN [9, 17]: Decrease
Expression change (Increase/Decrease), PRR5 [9, 17]: Increase
Expression change (Increase/Decrease), RNF152 [9, 17]: Decrease
Expression change (Increase/Decrease), RPS6KA1 [9, 17]: Decrease
Expression change (Increase/Decrease), RRAGD [9, 17]: Decrease
Expression change (Increase/Decrease), SESN2 [9, 17]: Increase
Log 2 ratio between two groups, CAB39L [9, 17]: −1.37
Log 2 ratio between two groups, DEPTOR [9, 17]: 2.11
Log 2 ratio between two groups, FECN [9, 17]: −1.61
Log 2 ratio between two groups, PRR5 [9, 17]: 4.19
Log 2 ratio between two groups, RNF152 [9, 17]: −1.61
Log 2 ratio between two groups, RPS6KA1 [9, 17]: −1.22
Log 2 ratio between two groups, RRAGD [9, 17]: −2.27
Log 2 ratio between two groups, SESN2 [9, 17]: 1.41
number of genes showing a significant change in expression (expression ratio differs twice or more) [9, 18]: 475 types of genes
overall expression change of genes of the WNT-mTOR signal pathway (Table 3) [9, 18]: changed toward suppressing the WNT-mTOR signal pathway
overall expression change of genes related to cytokines or chemokines involved in inflammation or natural immunity (Table 4) [9, 18]: changed toward suppressing expression of the cytokines or chemokines
